Earlier results in patent publication US20230372264A1 (priority 2020, published 2023).

Legend:
Streptococcus spp. = conditions: reference [27]
Staphylococcus aureus = conditions: reference [27]
Candida sp. = conditions: reference [27]
[1] = tested on: human breast cancer cells; conditions: reference [16]
[2] = tested on: ACE2 receptor bonds with viral S-glycoproteins; conditions: in vitro cellular models, cholesterol depletion, reference [5]
SARS-CoV = conditions: reference [9]

## OCCc1ccc(O)c(O)c1 [hydroxytyrosol, 4-(2-hydroxyethyl)-1,2-dihydroxybenzene]
Streptococcus spp.
  growth reduction: 40%
Staphylococcus aureus
  growth reduction: 40%
Candida sp.
  growth reduction: 40%

## hydroxypropyl-α-cyclodextrin
[1]
  effectiveness against migration vs hydroxypropyl-β-cyclodextrin: twice as effective

## methyl-β-cyclodextrin [MβCD]
[2]
  number of ACE2 receptor bonds with viral S-glycoproteins: halves
SARS-CoV
  inhibition of SARS-CoV infectivity: 90%
